Columns and labels:
MDR cells = details: in vitro and in vivo; cited from earlier work
AR 1.0 cells [1] = experiment: Potentiation of toxicity of various cytotoxic agents, AR 1.0 cell line; format: cell-based, mouse; details: for Potentiation Index at RMA concentration 10 nM: RMA 10 nM; for Potentiation Index at RMA concentration 30 nM: RMA 30 nM; for Potentiation Index at RMA concentration 50 nM: RMA 50 nM
Method: The EMT6 mouse mammary carcinoma cell line and the MDR resistant subline AR 1.0 were cultured in RPMI 1640 medium containing 10% foetal calf serum and 2 mM glutamine at 37° C. in 5% CO2. Cells were passaged between 1 in 200 and 1 in 2000 in the case of the parental cell line and between 1 in 20 and 1 in 200 in the case of the MDR resistant subline, after trypsinisation (0.25% trypsin, 0.2 gl^-1, EDTA).
(§1) (b) Cells were cultured for four days with a titration of doxorubicin (0.263 nM-17.24 μM) in the presence of a fixed concentration of each compound. Proliferation was quantified as described by Skehen et al, loc cit. The IC50 (concentration required to reduce proliferation to 50% of the untreated controls) for doxorubicin alone and with each compound were derived and used to calculate the potentiation index (PI): [formula]
(§2) The potentiation indices of a selection of compounds using a variety of cell lines and a variety of cytotoxics other than doxorubicin were measured following the protocol described above for doxorubicin, and the results are shown in Table D.

AR 1.0 cells [2] = experiment: Potentiation index with doxorubicin titration; format: cell-based, mouse; details: for Potentiation Index at RMA concentration 50 nM: Table C1, RMA 50 nM; for Potentiation Index at RMA concentration 20 nM: Table C1, RMA 20 nM
Summary of the method: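 Doxorubicin IC50 in AR 1.0 cells (MDR subline of EMT6 mouse mammary carcinoma) determined by sulphorhodamine B after 4-day culture across 0.263 nM-17.24 μM, with and without a fixed dose of test compound; their ratio gives the PI.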

AR 1.0 cells [3] = experiment: Potentiation of doxorubicin toxicity: proliferation assay (sulphorhodamine B); format: cell-based, mouse; details: Mus musculus, 96 h; compound alone; four day proliferation; read-out: Compound Toxicity (IC50)
Description: (a) Selected compounds of formula (I) were examined for their ability to potentiate the toxicity of doxorubicin in AR 1.0 cells.

AR 1.0 cells [4] = experiment: Drug accumulation assay: daunorubicin accumulation in AR 1.0 cells; format: cell-based; details: Mus musculus, 100% = accumulation with verapamil 100 μM, 1 hr, 37° C.
Summary of the method: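 Daunorubicin accumulation was measured in cells plated 48 h beforehand. These were AR 1.0 cells, an MDR-resistant derivative of mouse EMT6 mammary carcinoma, cultured at 37 °C in 5% CO2 in RPMI 1640 plus 10% foetal calf serum and 2 mM glutamine.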

2780AD cells = experiment: Potentiation of toxicity of various cytotoxic agents, 2780AD cell line; format: cell-based; details: Taxol; for Potentiation Index at RMA concentration 10 nM: RMA 10 nM; for Potentiation Index at RMA concentration 30 nM: RMA 30 nM; for Potentiation Index at RMA concentration 50 nM: RMA 50 nM
Method: as §1, §2

H69/LX4 cells = experiment: Potentiation of toxicity of various cytotoxic agents, H69/LX4 cell line; format: cell-based; details: for Potentiation Index at RMA concentration 10 nM: RMA 10 nM; for Potentiation Index at RMA concentration 30 nM: RMA 30 nM; for Potentiation Index at RMA concentration 50 nM: RMA 50 nM
Method: as §1, §2

mdr la P-gp gene = details: cited from earlier work

Compound	IC50 (AR 1.0 cells [4]) [nM]	Potentiation Index at RMA concentration 10 nM (AR 1.0 cells [2]; Table C1, RMA 10 nM)	Potentiation Index at RMA concentration 30 nM (AR 1.0 cells [2]; Table C1, RMA 30 nM)	Potentiation Index at RMA concentration 50 nM (AR 1.0 cells [2])	Potentiation Index at RMA concentration 100 nM (AR 1.0 cells [2]; Table C1, RMA 100 nM)	Potentiation Index at RMA concentration 10 nM (H69/LX4 cells; Taxol)	Potentiation Index at RMA concentration 30 nM (H69/LX4 cells; Taxol)	Potentiation Index at RMA concentration 50 nM (H69/LX4 cells; Taxol)	also measured
COc1ccc(CCN(C)CCCC(C#N)(c2ccc(OC)c(OC)c2)C(C)C)cc1OC (stereo not drawn) [Verapamil]	–	–	–	–	–	–	–	–	sensitisation of MDR cells to Vinca alkaloids (MDR cells): shown to sensitise MDR cells to Vinca alkaloids in vitro and in vivo
COc1cc2c(cc1OC)CN(CCc1ccc(NC(=O)c3cc(OC)c(OC)cc3NC(=O)c3cnc4ccccc4c3)cc1)CC2 [compound 9576, Quinoline-3-carboxylic acid (2-{4-[2-(6,7-dimethoxy-3,4-dihydro-1H-isoquinolin-2-yl)-ethyl]-phenylcarbamoyl}-4,5-dimethoxy-phenyl)-amide]	64	–	–	–	–	–	–	–	Potentiation Index at RMA concentration 10 nM (AR 1.0 cells [1]; Etoposide): 26; Potentiation Index at RMA concentration 30 nM (AR 1.0 cells [1]; Etoposide): 45; Potentiation Index at RMA concentration 50 nM (AR 1.0 cells [1]; Etoposide): 51; Potentiation Index at RMA concentration 10 nM (AR 1.0 cells [2]; Table C2, RMA 10 nM): 78; Potentiation Index at RMA concentration 30 nM (AR 1.0 cells [2]; Table C2, RMA 30 nM): 225; Potentiation Index at RMA concentration 100 nM (AR 1.0 cells [2]; Table C2, RMA 100 nM): 280; IC50 (AR 1.0 cells [3]): 930 nM
COc1cc2c(cc1OC)CN(CCc1ccc(NC(=O)c3sccc3NC(=O)c3cnc4ccccc4c3)cc1)CC2 [compound 9594, Quinoline-3-carboxylic acid (2-{4-[2-(6,7-dimethoxy-3,4-dihydro-1H-isoquinolin-2-yl)-ethyl]-phenylcarbamoyl}-thiophen-3-yl)-amide]	87	11	159	307	601	–	–	–	Potentiation Index at RMA concentration 10 nM (AR 1.0 cells [1]; Taxol): 50; Potentiation Index at RMA concentration 30 nM (AR 1.0 cells [1]; Taxol): 308; Potentiation Index at RMA concentration 50 nM (AR 1.0 cells [1]; Taxol): 407; Potentiation Index at RMA concentration 10 nM (2780AD cells): 18; Potentiation Index at RMA concentration 30 nM (2780AD cells): 425; Potentiation Index at RMA concentration 50 nM (2780AD cells): 1126; Potentiation Index at RMA concentration 10 nM (H69/LX4 cells; Vincristine): 2; Potentiation Index at RMA concentration 30 nM (H69/LX4 cells; Vincristine): 79; Potentiation Index at RMA concentration 50 nM (H69/LX4 cells; Vincristine): 356
COc1cc2c(cc1OC)CN(CCc1ccc(NC(=O)c3cc(N(C)C)ccc3NC(=O)c3cnc4ccccc4n3)cc1)CC2 [compound 9596, Quinoxaline-2-carboxylic acid (2-{4-[2-(6,7-dimethoxy-3,4-dihydro-1H-isoquinolin-2-yl)-ethyl]-phenylcarbamoyl}-4-dimethylamino-phenyl)-amide]	132	2.68	44	131	354	–	–	–	Potentiation Index at RMA concentration 10 nM (2780AD cells): 3.5; Potentiation Index at RMA concentration 30 nM (2780AD cells): 160; Potentiation Index at RMA concentration 50 nM (2780AD cells): 743; Potentiation Index at RMA concentration 10 nM (H69/LX4 cells; Vincristine): 1; Potentiation Index at RMA concentration 30 nM (H69/LX4 cells; Vincristine): 2; Potentiation Index at RMA concentration 50 nM (H69/LX4 cells; Vincristine): 158
COc1cc2c(cc1OC)CN(CCc1ccc(NC(=O)c3sccc3NC(=O)c3cnc4ccccc4n3)cc1)CC2 [compound 9597, Quinoxaline-2-carboxylic acid (2-{4-[2-(6,7-dimethoxy-3,4-dihydro-1H-isoquinolin-2-yl)-ethyl]-phenylcarbamoyl}-thiophen-3-yl)-amide]	87	80	382	551	878	–	–	–	Potentiation Index at RMA concentration 10 nM (2780AD cells): 110; Potentiation Index at RMA concentration 30 nM (2780AD cells): 1427; Potentiation Index at RMA concentration 50 nM (2780AD cells): 2070; Potentiation Index at RMA concentration 10 nM (H69/LX4 cells; Vincristine): 1; Potentiation Index at RMA concentration 30 nM (H69/LX4 cells; Vincristine): 41; Potentiation Index at RMA concentration 50 nM (H69/LX4 cells; Vincristine): 44
COc1cc2c(cc1OC)CN(CCc1ccc(NC(=O)c3c(C)csc3NC(=O)c3cnc4ccccc4n3)cc1)CC2 [compound 9608, Quinoxaline-2-carboxylic acid (3-{4-[2-(6,7-dimethoxy-3,4-dihydro-1H-isoquinolin-2-yl)-ethyl]-phenylcarbamoyl}-4-methyl-thiophen-2-yl)-amide]	224	6.7	60	118	178	1.6	17	130	Potentiation Index at RMA concentration 20 nM (AR 1.0 cells [2]): 31
COc1cc2c(cc1OC)CN(CCc1ccc(NC(=O)c3c(C)csc3NC(=O)c3cnc4ccccc4c3)cc1)CC2 [compound 9609, Quinoline-3-carboxylic acid (3-{4-[2-(6,7-dimethoxy-3,4-dihydro-1H-isoquinolin-2-yl)-ethyl]-phenylcarbamoyl}-4-methyl-thiophen-2-yl)-amide]	431	1.4	7.4	19	68	1	3	9	Potentiation Index at RMA concentration 20 nM (AR 1.0 cells [2]): 3.4
COc1ccc(CN(C)CCc2ccc(NC(=O)c3ccccc3NC(=O)c3cnc4ccccc4n3)cc2)cc1OC [compound 9612, Quinoxaline-2-carboxylic acid [2-(4-{2-[(3,4-dimethoxy-benzyl)-methyl-amino]-ethyl}-phenylcarbamoyl)-phenyl]-amide]	87	11	95	149	171	51	894	1329	–
COc1ccc(CN(C)CCc2ccc(NC(=O)c3ccccc3NC(=O)c3cnc4ccccc4c3)cc2)cc1OC [compound 9613, Quinoline-3-carboxylic acid [2-(4-{2-[(3,4-dimethoxy-benzyl)-methyl-amino]-ethyl}-phenylcarbamoyl)-phenyl]-amide]	98	3	35	97	168	2.2	236	877	–
COc1ccc(CN2CCc3ccc(NC(=O)c4ccccc4NC(=O)c4cnc5ccccc5n4)cc3C2)cc1OC [compound 9614, Quinoxaline-2-carboxylic acid {2-[2-(3,4-dimethoxy-benzyl)-1,2,3,4-tetrahydro-isoquinolin-7-ylcarbamoyl]-phenyl}-amide]	278	2	9	32	52	–	1.1	11	–
ivermectin	–	–	–	–	–	–	–	–	increased sensitivity of mice deficient in mdr la P-gp gene (mdr la P-gp gene): up to 100 fold

Source: patent US6218393A, “Anthranilic acid derivatives as multi drug resistance modulators” (priority 1997, dated 2001)
